From patent publication US5034212A, “Method of imaging using a radioactive glucosamine derivative” (Nihon Medi-Physics Co., Ltd., priority 1989, dated 1991)

Legend:
[1] = Body distribution of BGA in mouse; format: in vivo
[2] = system: hexokinase; assay: Phosphorylation with hexokinase / inhibition of glucose phosphorylation; format: biochemical
[3] = Body distribution of ^125 I-ABGA in mouse; format: in vivo, ddY strain male mice; conditions: i.v.
[4] = system: brain; assay: Behavior in mouse: TLC of brain and blood homogenates after tail vein injection; format: in vivo, ddY strain male mice
Experimental: ^125 I-ABGA was injected into ddY strain male mice at the tail vein, and after a certain period of time, the mice were sacrificed. The blood was collected from the heart, and the brain was taken out. The blood and the brain were respectively admixed with 5% trichloroacetic acid (1 ml), homogenized and centrifuged at 3,000 rpm and at 0° C. for 10 minutes. The supernatant was analyzed by thin layer chromatography using a mixture of chloroform and methanol (7:3 by volume) as a developing solvent. The results are shown in FIGS. 1A and 1B of the accompanying drawings. In FIGS. 1A and 1B showing respectively the analytical results on the brain homogenate and the blood homogenate, the solid line, the dotted line and the solid-dot mixed line represent respectively the ones of 5 minutes, 60 minutes and 180 minutes after the administration.

[5] = system: Swine liver esterase; assay: Enzymatic deesterification with swine liver esterase, TLC analysis; format: in vitro ADME; conditions: pH 7.4, 37° C.; for Proportion of peak component ABGA / Proportion of peak component BGA / Proportion of peak component I^- / Proportion of peak component Others: esterase 100 U
Experimental: Swine liver esterase (100 U) was added to phosphate buffer (pH 7.4), and ^125 I-ABGA (50 kBq) was added thereto, followed by incubation at 37° C. for a certain period of time. The reaction mixture was sampled, and ethanol was added thereto, followed by centrifugation.

[6] = Stability in buffer of pH 5, 7 or 9 at 37° C., TLC analysis; format: physicochemical
Experimental: A solution of ^125 I-ABGA in dimethylsulfoxide was added to a buffer of pH 5, 7 or 9 and incubated at 37° C. for a certain period of time.

[7] = Octanol/phosphate buffer distribution ratio (lipophilic property); format: physicochemical
Experimental: To a mixture of octanol (3 ml) and phosphate buffer (PBS) (3 ml), ^125 I-ABGA as obtained in Example 2 was added, followed by stirring and allowing to stand. The radioactivity of each layer was measured, and the distribution ratio was determined. The results are shown in Table 1, from which it is understood that ^125 I-ABGA is lypophilic.

With `O=C(N[C@H]1C(O)O[C@H](CO)[C@@H](O)[C@@H]1O)c1cccc(I)c1` (stereo partly drawn) [BGA, N-m-iodobenzoyl-D-glucosamine] the “Passage through the blood-brain barrier” value ([1]; in vivo) was “can hardly pass through the blood-brain barrier (BBB) in vivo”, the “Disappearance of radioactivity from brain” value ([1]; mouse) was “parallel to the blood clearance” and the “Stomach accumulation as index of deiodization / stability in body” value ([1]; mouse) was “low in stomach accumulation as the index of deiodization and thus stable in a body”. The “Inhibition to the ATP action” value [2] was “antagonistic inhibition to the ATP action”, the “Inhibition to the phosphorylation of glucose” value [2] was “non-antagonistic inhibition to the phosphorylation of glucose” and the Phosphorylation with hexokinase [2] was “not phosphorylated with hexokinase”.
For `CC(=O)OC[C@H]1OC(OC(C)=O)[C@H](NC(=O)c2cccc(I)c2)[C@@H](OC(C)=O)[C@@H]1OC(C)=O` (stereo partly drawn) [ABGA, N-(m-iodobenzoyl)-1,3,4,6-tetra-O-acetyl-D-glucosamine], the “Brain/blood ratio with lapse of time” value [3] was “increase of the brain/blood ratio with the lapse of time”, the “Clearance from the blood” value [3] was “rapid clearance from the blood” and the “Retention in the brain” value [3] was “retention in the brain”. The “Uptake in the brain in comparison with BGA” value [3] was “higher uptake in the brain”, the “TLC peak of ABGA over time” value ([4]; mouse brain, 5 to 180 minutes) was “decreases with the lapse of time” and the “TLC peaks in brain” value ([4]; mouse brain, 5 minutes after i.v. administration) was “the peaks of ABGA and BGA appear in brain 5 minutes after the administration”. The “Transfer to brain and deesterification” value ([4]; mouse, i.v.) was “transferred to brain at the initial stage of administration and thereafter deesterified, whereby it behaves as BGA”.
For `CC(=O)OC[C@H]1OC(OC(C)=O)[C@H](NC(=O)c2cccc([125I])c2)[C@@H](OC(C)=O)[C@@H]1OC(C)=O` (stereo partly drawn) [^125 I-ABGA, ^125 I-labeled N-(m-iodobenzoyl)-1,3,4,6-tetra-O-acetyl-D-glucosamine], the “Proportion of peak component ABGA” value ([5]; 10 min) was 0, the “Proportion of peak component BGA” value ([5]; 10 min) was 87.3 ± 3.1 and the “Proportion of peak component I^-” value ([5]; 10 min) was 0.9 ± 0.5. For the same compound, the “Proportion of peak component Others” value ([5]; 10 min) was 10.6 ± 2.9, the “Proportion of peak component ABGA” value ([5]; 60 min) was 0 and the “Proportion of peak component BGA” value ([5]; 60 min) was 54.5 ± 3.7. The “Proportion of peak component I^-” value ([5]; 60 min) was 6.5 ± 0.5, the “Proportion of peak component Others” value ([5]; 60 min) was 33.7 ± 2.4 and the “Proportion of peak component ABGA” value ([5]; 180 min) was 0. For the same compound, the “Proportion of peak component BGA” value ([5]; 180 min) was 7.2 ± 2.2, the “Proportion of peak component I^-” value ([5]; 180 min) was 33.4 ± 1.6 and the “Proportion of peak component Others” value ([5]; 180 min) was 42.9 ± 0.4. The Enzymatic deesterification ([5]; swine liver esterase) was “deesterified in a very short time to give N-m-iodobenzoyl-D-glucosamine (BGA)”, the “Body distribution, Blood” value ([3]; 2 min) was 5.16 ± 0.97 % dose/g organ and the “Body distribution, Brain” value ([3]; 2 min) was 0.53 ± 0.14 % dose/g organ. For the same compound, the “Body distribution, Heart” value ([3]; 2 min) was 4.88 ± 0.97 % dose/g organ, the “Body distribution, Intestine” value ([3]; 2 min) was 3.94 ± 1.19 % dose/g organ and the “Body distribution, Kidney” value ([3]; 2 min) was 14.87 ± 2.31 % dose/g organ. For the same compound, the “Body distribution, Liver” value ([3]; 2 min) was 15.32 ± 4.43 % dose/g organ, the “Body distribution, Pancreas” value ([3]; 2 min) was 4.54 ± 1.03 % dose/g organ and the “Body distribution, Stomach” value ([3]; 2 min) was 1.87 ± 0.68 % dose/g organ. For the same compound, the “Body distribution, Blood” value ([3]; 5 min) was 7.16 ± 0.13 % dose/g organ, the “Body distribution, Brain” value ([3]; 5 min) was 0.55 ± 0.11 % dose/g organ and the “Body distribution, Heart” value ([3]; 5 min) was 4.45 ± 0.52 % dose/g organ. The “Body distribution, Intestine” value ([3]; 5 min) was 4.58 ± 0.60 % dose/g organ, the “Body distribution, Kidney” value ([3]; 5 min) was 11.39 ± 3.08 % dose/g organ and the “Body distribution, Liver” value ([3]; 5 min) was 12.85 ± 1.71 % dose/g organ. The “Body distribution, Pancreas” value ([3]; 5 min) was 4.40 ± 0.28 % dose/g organ, the “Body distribution, Stomach” value ([3]; 5 min) was 0.59 ± 0.23 % dose/g organ and the “Body distribution, Blood” value ([3]; 15 min) was 6.64 ± 0.31 % dose/g organ. The “Body distribution, Brain” value ([3]; 15 min) was 0.47 ± 0.06 % dose/g organ, the “Body distribution, Heart” value ([3]; 15 min) was 3.35 ± 0.27 % dose/g organ and the “Body distribution, Intestine” value ([3]; 15 min) was 5.89 ± 0.47 % dose/g organ. The “Body distribution, Kidney” value ([3]; 15 min) was 7.00 ± 0.49 % dose/g organ, the “Body distribution, Liver” value ([3]; 15 min) was 7.66 ± 0.86 % dose/g organ and the “Body distribution, Pancreas” value ([3]; 15 min) was 3.16 ± 0.30 % dose/g organ. For the same compound, the “Body distribution, Stomach” value ([3]; 15 min) was 1.88 ± 0.52 % dose/g organ, the “Body distribution, Blood” value ([3]; 30 min) was 4.16 ± 2.42 % dose/g organ and the “Body distribution, Brain” value ([3]; 30 min) was 0.43 ± 0.02 % dose/g organ. For the same compound, the “Body distribution, Heart” value ([3]; 30 min) was 2.69 ± 0.20 % dose/g organ, the “Body distribution, Intestine” value ([3]; 30 min) was 6.26 ± 0.96 % dose/g organ and the “Body distribution, Kidney” value ([3]; 30 min) was 6.37 ± 3.04 % dose/g organ. For the same compound, the “Body distribution, Liver” value ([3]; 30 min) was 5.82 ± 0.64 % dose/g organ, the “Body distribution, Pancreas” value ([3]; 30 min) was 2.59 ± 0.13 % dose/g organ and the “Body distribution, Stomach” value ([3]; 30 min) was 1.86 ± 0.13 % dose/g organ. The “Body distribution, Blood” value ([3]; 60 min) was 3.67 ± 0.40 % dose/g organ, the “Body distribution, Brain” value ([3]; 60 min) was 0.33 ± 0.05 % dose/g organ and the “Body distribution, Heart” value ([3]; 60 min) was 1.87 ± 0.37 % dose/g organ. The “Body distribution, Intestine” value ([3]; 60 min) was 6.88 ± 0.53 % dose/g organ, the “Body distribution, Kidney” value ([3]; 60 min) was 3.81 ± 0.75 % dose/g organ and the “Body distribution, Liver” value ([3]; 60 min) was 4.94 ± 0.90 % dose/g organ. For the same compound, the “Body distribution, Pancreas” value ([3]; 60 min) was 2.10 ± 0.34 % dose/g organ, the “Body distribution, Stomach” value ([3]; 60 min) was 1.74 ± 0.83 % dose/g organ and the “Body distribution, Blood” value ([3]; 180 min) was 0.91 ± 0.55 % dose/g organ. The “Body distribution, Brain” value ([3]; 180 min) was 0.19 ± 0.08 % dose/g organ, the “Body distribution, Heart” value ([3]; 180 min) was 0.75 ± 0.34 % dose/g organ and the “Body distribution, Intestine” value ([3]; 180 min) was 4.60 ± 2.84 % dose/g organ. The “Body distribution, Kidney” value ([3]; 180 min) was 1.08 ± 0.67 % dose/g organ, the “Body distribution, Liver” value ([3]; 180 min) was 2.25 ± 1.44 % dose/g organ and the “Body distribution, Pancreas” value ([3]; 180 min) was 0.76 ± 0.35 % dose/g organ. For the same compound, the “Body distribution, Stomach” value ([3]; 180 min) was 1.27 ± 0.80 % dose/g organ, the “Stability: peak component ABGA” value ([6]; 15 min, pH 5, 37° C.) was 99.1 and the “Stability: peak component I^-” value ([6]; 15 min, pH 5, 37° C.) was 0. The “Stability: peak component Others” value ([6]; 15 min, pH 5, 37° C.) was 0, the “Stability: peak component ABGA” value ([6]; 15 min, pH 7, 37° C.) was 99.9 and the “Stability: peak component I^-” value ([6]; 15 min, pH 7, 37° C.) was 0. For the same compound, the “Stability: peak component Others” value ([6]; 15 min, pH 7, 37° C.) was 0, the “Stability: peak component ABGA” value ([6]; 15 min, pH 9, 37° C.) was 53.9 and the “Stability: peak component I^-” value ([6]; 15 min, pH 9, 37° C.) was 10.2. The “Stability: peak component Others” value ([6]; 15 min, pH 9, 37° C.) was 31.5, the “Stability: peak component ABGA” value ([6]; 60 min, pH 5, 37° C.) was 98.5 and the “Stability: peak component I^-” value ([6]; 60 min, pH 5, 37° C.) was 0. The “Stability: peak component Others” value ([6]; 60 min, pH 5, 37° C.) was 0, the “Stability: peak component ABGA” value ([6]; 60 min, pH 7, 37° C.) was 99.3 and the “Stability: peak component I^-” value ([6]; 60 min, pH 7, 37° C.) was 0. For the same compound, the “Stability: peak component Others” value ([6]; 60 min, pH 7, 37° C.) was 0, the “Stability: peak component ABGA” value ([6]; 60 min, pH 9, 37° C.) was 25.5 and the “Stability: peak component I^-” value ([6]; 60 min, pH 9, 37° C.) was 19.6. For the same compound, the “Stability: peak component Others” value ([6]; 60 min, pH 9, 37° C.) was 49.0, the “Stability: peak component ABGA” value ([6]; 180 min, pH 5, 37° C.) was 98.4 and the “Stability: peak component I^-” value ([6]; 180 min, pH 5, 37° C.) was 0. For the same compound, the “Stability: peak component Others” value ([6]; 180 min, pH 5, 37° C.) was 0, the “Stability: peak component ABGA” value ([6]; 180 min, pH 7, 37° C.) was 97.8 and the “Stability: peak component I^-” value ([6]; 180 min, pH 7, 37° C.) was 0.9. The “Stability: peak component Others” value ([6]; 180 min, pH 7, 37° C.) was 0, the “Stability: peak component ABGA” value ([6]; 180 min, pH 9, 37° C.) was 2.2 and the “Stability: peak component I^-” value ([6]; 180 min, pH 9, 37° C.) was 31.1. For the same compound, the “Stability: peak component Others” value ([6]; 180 min, pH 9, 37° C.) was 57.5, the “Stability at high pH” value ([6]; high pH (pH 9), 37° C.) was “hydrolyzed to BGA with deiodization at high pH” and the “Stability at other pH” value ([6]; pH 5 and 7, 37° C., up to 3 hours) was “stable (i.e. neither hydrolyzed nor deiodized) even after 3 hours at other pH”. The Lipophilic property ([7]; octanol/PBS) was “lypophilic”, the “Distribution ratio in PBS and octanol” value ([7]; pH 7.0) was 189.0 and the “Distribution ratio in PBS and octanol” value ([7]; pH 7.4) was 193.8. For the same compound, the “Distribution ratio in PBS and octanol” value ([7]; pH 8.10) was 206.5.
